Test results reported in ChEMBL document CHEMBL1201862, “PubChem BioAssay data set” (2004).
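Each compound was tested at five concentrations against cells in 96-well plates for 48 hours. GI50 marks 50% less growth.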 Active and inactive are the calls of the source. Rule as the data show it: active = GI50 up to about 1.1 µM and inactive = higher.

What was measured:
Assay in all cases: NCI anticancer screen, dose series, 48 h
CCRF-CEM = test system: CCRF-CEM
SK-MEL-2 = test system: SK-MEL-2
NCI/ADR-RES = test system: NCI/ADR-RES
NCI-H460 = test system: NCI-H460
LOX IMVI = test system: LOX IMVI
MDA-MB-435 = test system: MDA-MB-435
SN12C = test system: SN12C
MOLT-4 = test system: MOLT-4
HCT-116 = test system: HCT-116
M14 = test system: M14
HCC 2998 = test system: HCC 2998
A549 = test system: A549
SW-620 = test system: SW-620
COLO 205 = test system: COLO 205
DU-145 = test system: DU-145
SF-295 = test system: SF-295
ACHN = test system: ACHN
KM12 = test system: KM12
UACC-62 = test system: UACC-62

Structure (SMILES)	GI50 (CCRF-CEM)	GI50 (SK-MEL-2)	GI50 (NCI/ADR-RES)	GI50 (NCI-H460)	GI50 (LOX IMVI)	GI50 (MDA-MB-435)	GI50 (SN12C)	GI50 (MOLT-4)	GI50 (HCT-116)	GI50 (M14)	GI50 (HCC 2998)	GI50 (A549)	GI50 (SW-620)	GI50 (COLO 205)	GI50 (DU-145)	GI50 (SF-295)	GI50 (ACHN)	GI50 (KM12)	GI50 (UACC-62)
CC(C)(C)OCC1NC(=O)[C@@H]2Cc3c([nH]c4ccccc34)C(c3ccccc3)N2C1=O (stereo partly specified)	> 50 µM (inactive)	> 50 µM (inactive)	> 50 µM (inactive)	> 50 µM (inactive)	> 50 µM (inactive)	> 50 µM (inactive)	> 50 µM (inactive)	16.2 µM (inactive)	> 50 µM (inactive)	> 50 µM (inactive)	> 50 µM (inactive)	> 50 µM (inactive)	> 50 µM (inactive)	> 50 µM (inactive)	> 50 µM (inactive)	> 50 µM (inactive)	> 50 µM (inactive)	> 50 µM (inactive)	> 50 µM (inactive)
COc1cc(C)c(C2NC(=O)c3ccccc3N2)cc1C (stereo unspecified)	0.352 µM (active)	0.297 µM (active)	0.149 µM (active)	0.342 µM (active)	0.451 µM (active)	0.0294 µM (active)	0.692 µM (active)	1.04 µM (active)	0.34 µM (active)	0.316 µM (active)	1.33 µM (inactive)	0.596 µM (active)	0.303 µM (active)	0.313 µM (active)	0.4 µM (active)	0.243 µM (active)	0.47 µM (active)	0.15 µM (active)	0.201 µM (active)
Cc1cccc2c1C(=O)/C(=C/c1ccccc1C(=O)O)C2	> 100 µM (inactive)	> 100 µM (inactive)	> 100 µM (inactive)	> 100 µM (inactive)	> 100 µM (inactive)	> 100 µM (inactive)	> 100 µM (inactive)	> 100 µM (inactive)	98.6 µM (inactive)	> 100 µM (inactive)	> 100 µM (inactive)	> 100 µM (inactive)	> 100 µM (inactive)	> 100 µM (inactive)	> 100 µM (inactive)	> 100 µM (inactive)	> 100 µM (inactive)	> 100 µM (inactive)	> 100 µM (inactive)
CCOP(=O)(OCC)/C(C#N)=C/c1cnc(-c2ccccc2)[nH]1	> 100 µM (inactive)	> 100 µM (inactive)	> 100 µM (inactive)	> 100 µM (inactive)	> 100 µM (inactive)	24.7 µM (inactive)	> 100 µM (inactive)	> 100 µM (inactive)	> 100 µM (inactive)	> 100 µM (inactive)	> 100 µM (inactive)	> 100 µM (inactive)	> 100 µM (inactive)	> 100 µM (inactive)	> 100 µM (inactive)	> 100 µM (inactive)	> 100 µM (inactive)	> 100 µM (inactive)	> 100 µM (inactive)
CC(=O)Nc1n[n+]([O-])c2cc(C)ccc2[n+]1[O-]	2.05 µM (inactive)	3.81 µM (inactive)	5.79 µM (inactive)	0.378 µM (active)	2.4 µM (inactive)	4.72 µM (inactive)	3.05 µM (inactive)	1.49 µM (inactive)	2.08 µM (inactive)	2.42 µM (inactive)	3.84 µM (inactive)	2.44 µM (inactive)	2.41 µM (inactive)	2.37 µM (inactive)	4.71 µM (inactive)	2.5 µM (inactive)	2.33 µM (inactive)	3.68 µM (inactive)	1.78 µM (inactive)
O=C(O)[C@H](CCC[C@H]1C(=O)O[C@H](c2ccccc2)[C@H](c2ccccc2)N1C(=O)OCc1ccccc1)N[C@@H](c1ccccc1)[C@H](O)c1ccccc1	20 µM (inactive)	20 µM (inactive)	> 100 µM (inactive)	34.5 µM (inactive)	22.9 µM (inactive)	20.7 µM (inactive)	20.7 µM (inactive)	24.3 µM (inactive)	20.8 µM (inactive)	> 100 µM (inactive)	21 µM (inactive)	> 100 µM (inactive)	25.1 µM (inactive)	30.8 µM (inactive)	> 100 µM (inactive)	28.2 µM (inactive)	> 100 µM (inactive)	19.7 µM (inactive)	22.1 µM (inactive)
COC(=O)c1sc2c(Cl)c(Cl)sc2c1Cl	> 100 µM (inactive)	> 100 µM (inactive)	> 100 µM (inactive)	> 100 µM (inactive)	> 100 µM (inactive)	> 100 µM (inactive)	> 100 µM (inactive)	> 100 µM (inactive)	> 100 µM (inactive)	> 100 µM (inactive)	> 100 µM (inactive)	> 100 µM (inactive)	> 100 µM (inactive)	> 100 µM (inactive)	> 100 µM (inactive)	77.4 µM (inactive)	> 100 µM (inactive)	> 100 µM (inactive)	> 100 µM (inactive)
CCOC(=O)CC1c2ccc(O)cc2OC(=O)C1c1ccc([N+](=O)[O-])cc1 (stereo unspecified)	22.8 µM (inactive)	17 µM (inactive)	27 µM (inactive)	31.3 µM (inactive)	40.7 µM (inactive)	25 µM (inactive)	21.8 µM (inactive)	22.8 µM (inactive)	22.5 µM (inactive)	21 µM (inactive)	20.3 µM (inactive)	27.5 µM (inactive)	65.6 µM (inactive)	15.7 µM (inactive)	48.9 µM (inactive)	38.4 µM (inactive)	25.2 µM (inactive)	34.3 µM (inactive)	37.2 µM (inactive)
CC1(C)CC[C@]2(C(=O)O)[C@H](O)C[C@]3(C)C(=CC[C@@H]4[C@@]5(C)CC[C@H](OC6OC(C(=O)O)C(O)C(O)C6O)C(C)(C)[C@@H]5CC[C@]43C)[C@@H]2C1 (stereo partly specified)	36.9 µM (inactive)	> 100 µM (inactive)	> 100 µM (inactive)	> 100 µM (inactive)	64.3 µM (inactive)	> 100 µM (inactive)	27.1 µM (inactive)	> 100 µM (inactive)	> 100 µM (inactive)	> 100 µM (inactive)	27.2 µM (inactive)	> 100 µM (inactive)	> 100 µM (inactive)	> 100 µM (inactive)	96.4 µM (inactive)	46.1 µM (inactive)	40.4 µM (inactive)	56.2 µM (inactive)	23.6 µM (inactive)
C1=N\c2ccc(cc2)-c2ccc(cc2)/N=C\c2ccccc2OCc2cccc(n2)COc2ccccc2/1	> 100 µM (inactive)	27.6 µM (inactive)	> 100 µM (inactive)	71.6 µM (inactive)	> 44.2 µM (inactive)	> 100 µM (inactive)	> 81.3 µM (inactive)	> 100 µM (inactive)	24.4 µM (inactive)	36.4 µM (inactive)	> 100 µM (inactive)	72.8 µM (inactive)	> 100 µM (inactive)	> 100 µM (inactive)	> 80.5 µM (inactive)	18.5 µM (inactive)	21.3 µM (inactive)	> 100 µM (inactive)	39.4 µM (inactive)
COC(=O)c1ccc(NCC2=CC(=O)c3ccccc3C2=O)cc1	2.04 µM (inactive)	18.9 µM (inactive)	27.5 µM (inactive)	18.2 µM (inactive)	8.18 µM (inactive)	12.2 µM (inactive)	21.8 µM (inactive)	3.01 µM (inactive)	17.8 µM (inactive)	17.8 µM (inactive)	19.4 µM (inactive)	22.5 µM (inactive)	22.2 µM (inactive)	13.3 µM (inactive)	16.5 µM (inactive)	16.9 µM (inactive)	13.9 µM (inactive)	15.4 µM (inactive)	13.6 µM (inactive)
COc1cccc2c1Cc1cc(-c3ccccc3)[n+](C)n1-2	3.37 µM (inactive)	17.5 µM (inactive)	84.7 µM (inactive)	14.5 µM (inactive)	10 µM (inactive)	11.8 µM (inactive)	8.85 µM (inactive)	2.92 µM (inactive)	3.5 µM (inactive)	8.43 µM (inactive)	10.2 µM (inactive)	27.9 µM (inactive)	6.1 µM (inactive)	1.38 µM (inactive)	30.1 µM (inactive)	20.3 µM (inactive)	19.2 µM (inactive)	11.5 µM (inactive)	15 µM (inactive)
O=C(/C=C/c1ccc(O)c(O)c1)OCC(OC(=O)/C=C/c1ccc(O)c(O)c1)C(=O)O (stereo unspecified)	48 µM (inactive)	> 100 µM (inactive)	> 100 µM (inactive)	86.9 µM (inactive)	92.5 µM (inactive)	> 100 µM (inactive)	> 100 µM (inactive)	63.4 µM (inactive)	81.7 µM (inactive)	> 100 µM (inactive)	> 100 µM (inactive)	> 100 µM (inactive)	50.8 µM (inactive)	> 100 µM (inactive)	> 100 µM (inactive)	> 100 µM (inactive)	> 100 µM (inactive)	> 100 µM (inactive)	> 100 µM (inactive)
COc1cc2c3cc1Oc1c(O)c(OC)cc4c1[C@H](Cc1ccc(cc1)Oc1cc(ccc1O)C[C@H]3N(C)CC2)N(C)CC4	10.4 µM (inactive)	12.3 µM (inactive)	24.5 µM (inactive)	8.99 µM (inactive)	4.94 µM (inactive)	10.7 µM (inactive)	4.17 µM (inactive)	8.41 µM (inactive)	5.77 µM (inactive)	2.25 µM (inactive)	7.05 µM (inactive)	15.2 µM (inactive)	16.5 µM (inactive)	13.8 µM (inactive)	15.1 µM (inactive)	12.4 µM (inactive)	19.4 µM (inactive)	9.02 µM (inactive)	17.4 µM (inactive)
